Usually IC50 stands for the concentration that inhibits the measured activity by half.

Each structure is given as a SMILES string.

A short description of this assay: Agonist activity at human IP receptor in human platelets assessed as inhibition of ADP-induced platelet aggregation.

Regarding `O=C(O)COc1cccc2c1CCC(Cn1ncc(-c3cccc(F)c3F)c(-c3ccccc3)c1=O)C2` (centres undefined), the IC50 stood at 87 nM.
Next, `COc1ccc(-c2c(-c3ccccc3)cnn(CC3CCc4c(cccc4OCC(=O)O)C3)c2=O)cc1` (centres undefined): 330 nM; `O=C(O)COc1cccc2c1CCC(Cn1ncc(-c3ccccc3F)c(-c3ccccc3)c1=O)C2` (centres undefined): 220 nM; `O=C(O)COc1cccc2c1CCC(Cn1ncc(-c3cccc(F)c3F)c(-c3ccc(F)cc3)c1=O)C2` (centres undefined): 62 nM.
With `O=C(O)COc1cccc2c1CCC(Cn1ncc(-c3cccc(F)c3)c(-c3ccccc3)c1=O)C2` (centres undefined) the figure was 191 nM; with `O=C(O)COc1cccc2c1CC[C@@H](Cn1ncc(-c3cccc(F)c3F)c(-c3ccc(F)cc3)c1=O)C2`, 62 nM; with `O=C(O)COc1cccc2c1CCC(Cn1ncc(-c3ccccc3)c(-c3ccc(F)cc3)c1=O)C2` (centres undefined), 230 nM.
For the compound `COc1cccc(-c2cnn(CC3CCc4c(cccc4OCC(=O)O)C3)c(=O)c2-c2ccccc2)c1F` (centres undefined), the half-maximal inhibitory concentration (IC50) is 64 nM.
With `O=C(O)COc1cccc2c1CCC(Cn1ncc(-c3ccccc3)c(-c3ccccc3)c1=O)C2` (centres undefined) the figure was 325 nM.

The values above are taken from BindingDB's records for doi:10.1016/j.bmcl.2015.01.024 (Arena Pharmaceuticals, 2015).
